Test results: ChEMBL document CHEMBL1201862, “PubChem BioAssay data set” (2004)
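Protocol summary: plate cells (96-well), add compound at 5 concentrations, incubate 48 h, interpolate endpoints linearly. GI50 is the concentration that inhibits growth by half.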 Active and inactive are the calls of the source. No stated cut-off is given here; in the data, active = GI50 up to about 1.1 µM and inactive = higher.

How the values were obtained:
Experiment in all cases: DTP human tumour cell line panel, 48 h
ACHN = test system: ACHN
HOP-62 = test system: HOP-62
HT-29 = test system: HT-29
KM12 = test system: KM12
M14 = test system: M14
MDA-MB-231 = test system: MDA-MB-231
Malme-3M = test system: Malme-3M
NCI-H460 = test system: NCI-H460
OVCAR-4 = test system: OVCAR-4
RPMI-8226 = test system: RPMI-8226
RXF 393 = test system: RXF 393
SF-268 = test system: SF-268
SF-295 = test system: SF-295
SK-MEL-2 = test system: SK-MEL-2
SN12C = test system: SN12C
SNB-19 = test system: SNB-19
SW-620 = test system: SW-620
T47D = test system: T47D
U-251 = test system: U-251
UACC-257 = test system: UACC-257

Row | Compound | GI50 (ACHN) | GI50 (HOP-62) | GI50 (HT-29) | GI50 (KM12) | GI50 (M14) | GI50 (MDA-MB-231) | GI50 (Malme-3M) | GI50 (NCI-H460) | GI50 (OVCAR-4) | GI50 (RPMI-8226) | GI50 (RXF 393) | GI50 (SF-268) | GI50 (SF-295) | GI50 (SK-MEL-2) | GI50 (SN12C) | GI50 (SNB-19) | GI50 (SW-620) | GI50 (T47D) | GI50 (U-251) | GI50 (UACC-257)
1 | COC(=O)c1sc2c(c1C(=O)OC)/C(=N/C(C)(C)C)S/C2=N\C(C)(C)C | 18.7 µM (inactive) | 19.6 µM (inactive) | 16.4 µM (inactive) | 16.3 µM (inactive) | 16.7 µM (inactive) | 19.9 µM (inactive) | 20.7 µM (inactive) | 18.5 µM (inactive) | 17.7 µM (inactive) | 15.2 µM (inactive) | 4.02 µM (inactive) | 19.1 µM (inactive) | 19.2 µM (inactive) | 17.1 µM (inactive) | 16.6 µM (inactive) | 17.8 µM (inactive) | 17.9 µM (inactive) | 12.2 µM (inactive) | 17.1 µM (inactive) | 17.9 µM (inactive)
2 | O=C(O)c1cc2ccccc2c2c1C(=O)c1ccccc1-2 | 30.3 µM (inactive) | 20.7 µM (inactive) | > 100 µM (inactive) | > 100 µM (inactive) | 46.7 µM (inactive) | > 100 µM (inactive) | 83.8 µM (inactive) | > 100 µM (inactive) | > 100 µM (inactive) | 65.8 µM (inactive) | > 100 µM (inactive) | > 100 µM (inactive) | 56 µM (inactive) | > 100 µM (inactive) | 75 µM (inactive) | 57 µM (inactive) | > 100 µM (inactive) | > 100 µM (inactive) | > 100 µM (inactive) | > 100 µM (inactive)
3 | Cc1ccc([N+](=O)[O-])c2c(NCCCN(C)C)ccnc12 | 57 µM (inactive) | > 90.4 µM (inactive) | 31 µM (inactive) | 69.8 µM (inactive) | > 59.2 µM (inactive) | > 100 µM (inactive) | 17 µM (inactive) | 23.2 µM (inactive) | 22.4 µM (inactive) | > 100 µM (inactive) | > 100 µM (inactive) | > 95.9 µM (inactive) | > 100 µM (inactive) | 36.6 µM (inactive) | 44.3 µM (inactive) | > 100 µM (inactive) | 30.7 µM (inactive) | > 100 µM (inactive) | 87.3 µM (inactive) | 39.2 µM (inactive)
4 | Cc1ccsc1/C=N/Nc1cnccn1 | > 100 µM (inactive) | > 100 µM (inactive) | 76.9 µM (inactive) | 99.5 µM (inactive) | > 100 µM (inactive) | > 100 µM (inactive) | > 100 µM (inactive) | – | > 100 µM (inactive) | > 100 µM (inactive) | > 100 µM (inactive) | > 100 µM (inactive) | > 100 µM (inactive) | > 100 µM (inactive) | > 100 µM (inactive) | > 100 µM (inactive) | > 100 µM (inactive) | > 100 µM (inactive) | > 100 µM (inactive) | > 100 µM (inactive)
5 | COc1cc(/C=C/C(=N\NC(=S)NN)c2sc(NNC(C)=O)nc2C)ccc1O | > 100 µM (inactive) | > 100 µM (inactive) | > 100 µM (inactive) | 66.2 µM (inactive) | > 100 µM (inactive) | > 100 µM (inactive) | > 100 µM (inactive) | > 100 µM (inactive) | > 100 µM (inactive) | > 100 µM (inactive) | > 100 µM (inactive) | > 100 µM (inactive) | > 100 µM (inactive) | > 100 µM (inactive) | > 100 µM (inactive) | > 100 µM (inactive) | > 100 µM (inactive) | > 100 µM (inactive) | > 100 µM (inactive) | > 100 µM (inactive)
6 | N#CC(NNC(=O)c1c(Cl)c(Cl)c(Cl)c(Cl)c1-c1nc2cc(C(=O)c3ccccc3)ccc2[nH]1)c1ccccc1 (stereo not drawn) | 10.6 µM (inactive) | 7.82 µM (inactive) | 8.53 µM (inactive) | 7.45 µM (inactive) | 7.46 µM (inactive) | 9.2 µM (inactive) | 8.57 µM (inactive) | – | 7.13 µM (inactive) | 6.85 µM (inactive) | 3.18 µM (inactive) | 7.83 µM (inactive) | 3.68 µM (inactive) | 8.91 µM (inactive) | 6.61 µM (inactive) | 12.4 µM (inactive) | 8.87 µM (inactive) | 4.79 µM (inactive) | 15.8 µM (inactive) | 9.98 µM (inactive)
7 | C[C@]12CC[C@H](O)CC1=CC[C@@H]1[C@@H]2CC[C@]2(C)c3nc(Cl)ccc3C[C@@H]12 | 15.6 µM (inactive) | 30.7 µM (inactive) | 10.9 µM (inactive) | 22.2 µM (inactive) | > 59.4 µM (inactive) | > 94.6 µM (inactive) | 53 µM (inactive) | 28.1 µM (inactive) | > 53.7 µM (inactive) | 39.4 µM (inactive) | 37.9 µM (inactive) | 26.7 µM (inactive) | 28.2 µM (inactive) | > 100 µM (inactive) | 44.8 µM (inactive) | 36.1 µM (inactive) | > 42.3 µM (inactive) | > 63.4 µM (inactive) | 31 µM (inactive) | > 100 µM (inactive)
8 | CC(=O)OCC1OC(n2c(N)c(C#N)c(-c3ccc(C)cc3)c(C#N)c2=S)C(OC(C)=O)C(OC(C)=O)C1OC(C)=O (stereo not drawn) | 29.1 µM (inactive) | 20 µM (inactive) | 18.7 µM (inactive) | 79.1 µM (inactive) | 16.4 µM (inactive) | 44.9 µM (inactive) | 17.8 µM (inactive) | 31.4 µM (inactive) | 41.9 µM (inactive) | 29.2 µM (inactive) | 18.7 µM (inactive) | 15.2 µM (inactive) | 25.4 µM (inactive) | 15.2 µM (inactive) | 15.6 µM (inactive) | 18.8 µM (inactive) | 36 µM (inactive) | 17.5 µM (inactive) | 17 µM (inactive) | 19.2 µM (inactive)
9 | Cc1cc(NS(=O)(=O)c2ccc(NC(=O)c3ccc4[nH]c5ccccc5c(=O)c4c3)cc2)no1 | > 100 µM (inactive) | > 100 µM (inactive) | > 100 µM (inactive) | 44.1 µM (inactive) | > 100 µM (inactive) | > 100 µM (inactive) | 56.9 µM (inactive) | > 100 µM (inactive) | > 100 µM (inactive) | > 100 µM (inactive) | 45.4 µM (inactive) | > 100 µM (inactive) | > 100 µM (inactive) | 75.3 µM (inactive) | > 100 µM (inactive) | > 100 µM (inactive) | > 100 µM (inactive) | 69.7 µM (inactive) | 47.4 µM (inactive) | > 100 µM (inactive)
10 | C#CC1NC(=O)C1N(CC)CC (stereo not drawn) | > 100 µM (inactive) | > 100 µM (inactive) | > 100 µM (inactive) | > 100 µM (inactive) | > 100 µM (inactive) | > 100 µM (inactive) | > 100 µM (inactive) | > 100 µM (inactive) | > 100 µM (inactive) | > 100 µM (inactive) | > 100 µM (inactive) | > 100 µM (inactive) | > 100 µM (inactive) | > 100 µM (inactive) | > 100 µM (inactive) | > 100 µM (inactive) | > 100 µM (inactive) | > 100 µM (inactive) | > 100 µM (inactive) | > 100 µM (inactive)
11 | ClCCN(CCCl)c1ccc(CNCCCNCc2ccc(N(CCCl)CCCl)cc2)cc1 | 0.521 µM (active) | 2.54 µM (inactive) | 1.87 µM (inactive) | 1.99 µM (inactive) | 4.7 µM (inactive) | 2.7 µM (inactive) | 2.44 µM (inactive) | 0.402 µM (active) | – | 3.52 µM (inactive) | 1.59 µM (inactive) | 1.43 µM (inactive) | – | 2.17 µM (inactive) | 1.63 µM (inactive) | 1.87 µM (inactive) | 3.03 µM (inactive) | 2.04 µM (inactive) | 1.33 µM (inactive) | 2.29 µM (inactive)
12 | C=C(CCOC)CCC1CCCCC(CN(C)C)C1=O (stereo not drawn) | > 100 µM (inactive) | > 100 µM (inactive) | > 100 µM (inactive) | > 100 µM (inactive) | > 100 µM (inactive) | > 100 µM (inactive) | > 100 µM (inactive) | > 100 µM (inactive) | > 100 µM (inactive) | > 100 µM (inactive) | > 100 µM (inactive) | > 100 µM (inactive) | > 100 µM (inactive) | > 100 µM (inactive) | > 100 µM (inactive) | > 100 µM (inactive) | > 100 µM (inactive) | > 100 µM (inactive) | > 100 µM (inactive) | –
13 | C=C[C@]1(O[Si](C)(C)C)C[C@@]2(C(=O)OCC)C(O)C(=O)N3CCc4cc(OC)c(OC)cc4[C@]312 (stereo partly drawn) | > 100 µM (inactive) | > 100 µM (inactive) | > 100 µM (inactive) | > 100 µM (inactive) | > 100 µM (inactive) | > 100 µM (inactive) | > 100 µM (inactive) | > 100 µM (inactive) | > 100 µM (inactive) | 61.1 µM (inactive) | > 100 µM (inactive) | > 100 µM (inactive) | > 100 µM (inactive) | > 100 µM (inactive) | > 100 µM (inactive) | > 100 µM (inactive) | > 100 µM (inactive) | > 100 µM (inactive) | > 100 µM (inactive) | > 100 µM (inactive)
14 | [O-][Cl+3]([O-])([O-])[O-].[O-][Cl+3]([O-])([O-])[O-].c1ccn2c(N3CCOCC3)[n+]3c4ccccc4[n+]4c(N5CCOCC5)n5ccccc5c4c3c2c1 | > 100 µM (inactive) | – | – | 52.1 µM (inactive) | > 100 µM (inactive) | > 100 µM (inactive) | 66.2 µM (inactive) | > 100 µM (inactive) | > 100 µM (inactive) | > 100 µM (inactive) | > 100 µM (inactive) | 19 µM (inactive) | > 100 µM (inactive) | > 100 µM (inactive) | 17.7 µM (inactive) | 63.2 µM (inactive) | > 100 µM (inactive) | > 100 µM (inactive) | 50.6 µM (inactive) | 68.9 µM (inactive)
